Laboratory results reported in patent publication US20200338045A1, “ISOINDOLINE COMPOSITIONS AND METHODS FOR TREATING NEURODEGENERATIVE DISEASE” (priority 2017, published 2020).
Entries after “also recorded” stand apart in the source; their conditions may differ.

What was measured:
[1] = test system: aged transgenic mouse models of AD; assay: Aged transgenic mouse models of AD (cognition, synapses, CSF proteins); type: in vivo
CYP isoenzymes = assay: Drug interaction studies
[2] = test system: hippocampal/cortical cultures; assay: Neurogranin expression study in vitro; type: cell-based; conditions: Aβ42 oligomers 500 nM 1 hr, then CT1812 4.8 nM 24 hr; 21 DIV cultures
Experimental: Neurons were fixed in 3.75% formaldehyde and stained with full-length neurogranin (Abcam catalogue # ab23570, used in combination with novel Ng7 to detect full length neurogranin in Alzheimer's disease patient brain IP; Kvartsberg et al. 2015 Blennow lab), MAP2 (Millipore), and 4G8 (Biolegend) antibodies. Imaging was performed on Cellomics VX automated microscope with a 20×, 0.75 NA objective and analyzed using a compartmental analysis algorithm to measure staining in the nucleus versus cytoplasm.

CC(C)(C)Oc1cc(CCC(C)(C)N2Cc3ccc(S(C)(=O)=O)cc3C2)ccc1O [CT1812]
cognitive performance / memory ([1]; aged transgenic mouse models of AD): restoring normal cognitive performance; also recorded: restores cognitive function; also recorded: restores memory to normal | inflammatory protein expression in CSF ([1]; chronic treatment of aged transgenic mice, efficacious doses, LC/MSMS): significantly reduces | interactions with CYP isoenzymes (CYP isoenzymes): minor interactions | full length neurogranin protein expression in neurons [2]: restores neurogranin expression
